From US20240252488A1 (KOREA RESEARCH INSTITUTE OF CHEMICAL TECHNOLOGY, priority 2020, published 2024)

Key:
[1] = test system: FADD−/− Jurkat cells; assay: Necroptosis inhibition assay, TNF-α-induced necroptosis (CellTiter-Glo 2.0); type: cell-based, human; conditions: TNF-α 15 ng/mL; for Necroptosis inhibition assay (Rescue %) 1 μM: compound 1 μM; for Necroptosis inhibition assay (Rescue %) 10 μM: compound 10 μM
Summary of the method: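 Tested at three fixed concentrations (0.1, 1, 10 μM final) with a 30-minute room-temperature preincubation ahead of 15 ng/mL TNF-α challenge lasting 20 to 24 hours. Inhibition rate and cytotoxicity derive from ATP luminescence.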

[2] = molecular target: T1, MLKL (Homo sapiens, UniProt Q8NB16); assay: MLKL degradation assay in HepG2 cell line (western blot); type: cell-based; parameters: endogenous in cells; host or cells: HepG2 or HaCaT; conditions: cell line not given; for Degradation assay (Degradation %) 1 μM: compound 1 μM; for Degradation assay (Degradation %) 10 μM: compound 10 μM
T1 sequence (Q8NB16 1-471): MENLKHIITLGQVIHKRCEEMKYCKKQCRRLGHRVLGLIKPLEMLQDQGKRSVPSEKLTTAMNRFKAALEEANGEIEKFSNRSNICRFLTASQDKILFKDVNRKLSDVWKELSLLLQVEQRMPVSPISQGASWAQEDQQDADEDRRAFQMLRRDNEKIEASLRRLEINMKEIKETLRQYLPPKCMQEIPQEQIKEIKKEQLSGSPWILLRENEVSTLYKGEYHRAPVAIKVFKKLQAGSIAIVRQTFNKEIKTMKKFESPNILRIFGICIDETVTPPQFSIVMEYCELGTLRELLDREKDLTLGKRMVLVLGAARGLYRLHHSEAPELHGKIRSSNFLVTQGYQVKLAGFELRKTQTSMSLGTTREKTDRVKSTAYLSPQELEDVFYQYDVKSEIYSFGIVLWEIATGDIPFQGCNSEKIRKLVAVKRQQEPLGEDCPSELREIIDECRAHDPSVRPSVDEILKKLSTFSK
Summary of the method: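 Degradation is judged from MLKL band intensity on immunoblots of HepG2 lysates taken after 20-24 hours of compound at final 1 or 10 μM.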

[3] = molecular target: T1, MLKL; assay: Measurement of binding affinity with MLKL receptor (competitive binding assay, Kd); parameters: made in house; host or cells: HEK 293 cell line (T7 phage in E. coli BL21-derived host is also described)
Summary of the method: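 Competitive displacement of MLKL, expressed in HEK 293 cells and DNA-tagged for qPCR, from immobilized ligand on biotin-blocked beads. Compounds were added from 111× DMSO stocks (final DMSO 0.9%). Kinase left in the eluates was quantified by qPCR to give Kd.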

| Degradation assay (Degradation %) 1 μM [2] [%] | Degradation assay (Degradation %) 10 μM [2] [%] | Kd [3] [nM] | SMILES | Necroptosis inhibition assay (Rescue %) 1 μM ([1]; FADD−/− Jurkat cells) [%] | Necroptosis inhibition assay (Rescue %) 10 μM ([1]; FADD−/− Jurkat cells) [%] | Necroptosis inhibition assay (Rescue %) 1 μM [1] [%] | Necroptosis inhibition assay (Rescue %) 10 μM [1] [%] |
| --- | --- | --- | --- | --- | --- | --- | --- |
| 80.37 | 87.27 | 0.53 | Nc1ncc(-c2cnn(C3CCN(C4CC5(CCN(CC6CCN(C(=O)COc7ccc8c(c7)C(=O)N(C7CCC(=O)NC7=O)C8=O)CC6)CC5)C4)CC3)c2)nc1C(=O)O[C@@H](C(=O)Nc1ccc(F)cc1)c1ccccc1 (stereo partly drawn) [TDH-442, (R)-2-((4-fluorophenyl)amino)-2-oxo-1-phenylethyl 3-amino-6-(1-(1-(7-((1-(2-((2-(2,6-dioxopiperidin-3-yl)-1,3-dioxoisoindolin-5-yl)oxy)acetyl)piperidin-4-yl)methyl)-7-azaspiro[3.5]nonan-2-yl)piperidin-4-yl)-1H-pyrazol-4-yl)pyrazine-2-carboxylate] | 58.16 | 21.7 | – | – |
| 76.12 | 77.55 | 2.2 | Nc1ncc(-c2cnn(C3CCN(CC4CN(C(=O)COc5ccc6c(c5)C(=O)N(C5CCC(=O)NC5=O)C6=O)CCO4)CC3)c2)nc1C(=O)OC(C(=O)Nc1ccc(F)cc1)c1ccccc1 (stereo not shown) [TDH-309, 2-((4-fluorophenyl)amino)-2-oxo-1-phenylethyl 3-amino-6-(1-(1-((4-(2-((2-(2,6-dioxopiperidin-3-yl)-1,3-dioxoisoindolin-5-yl)oxy)acetyl)morpholin-2-yl)methyl)piperidin-4-yl)-1H-pyrazol-4-yl)pyrazine-2-carboxylate] | – | – | 75.1 | 78.37 |
| 76.09 | 71.04 | 2.3 | Nc1ncc(-c2cnn(C3CCN(CCC4CCN(C(=O)COc5ccc6nnn(C7CCC(=O)NC7=O)c(=O)c6c5)CC4)CC3)c2)nc1C(=O)OC(C(=O)Nc1ccc(F)cc1)c1ccccc1 (stereo not shown) [TDH-293, 2-((4-fluorophenyl)amino)-2-oxo-1-phenylethyl 3-amino-6-(1-(1-(2-(1-(2-((3-(2,6-dioxopiperidin-3-yl)-4-oxo-3,4-dihydrobenzo[d][1,2,3]triazin-6-yl)oxy)acetyl)piperidin-4-yl)ethyl)piperidin-4-yl)-1H-pyrazol-4-yl)pyrazine-2-carboxylate] | – | – | 108.66 | 87.1 |
| 85.98 | 71.25 | 3.1 | Nc1ncc(-c2cnn(C3CCN(C(=O)CCC4CCN(C(=O)C5CCN(c6ccc7nnn(C8CCC(=O)NC8=O)c(=O)c7c6)CC5)CC4)CC3)c2)nc1C(=O)O[C@@H](C(=O)Nc1ccc(F)cc1)c1ccccc1 (stereo partly drawn) [TDH-436, (R)-2-((4-fluorophenyl)amino)-2-oxo-1-phenylethyl 3-amino-6-(1-(1-(3-(1-(1-(3-(2,6-dioxopiperidin-3-yl)-4-oxo-3,4-dihydrobenzo[d][1,2,3]triazin-6-yl)piperidine-4-carbonyl)piperidin-4-yl)propanoyl)piperidin-4-yl)-1H-pyrazol-4-yl)pyrazine-2-carboxylate] | 41.81 | 21.38 | – | – |
| 79.40 | 83.30 | 2.8 | Nc1ncc(-c2cnn(C3CCN(C(=O)CC4CCN(C(=O)CCc5ccc6c(c5)C(=O)N(C5CCC(=O)NC5=O)C6=O)CC4)CC3)c2)nc1C(=O)O[C@@H](C(=O)Nc1ccc(F)cc1)c1ccccc1 (stereo partly drawn) [TDH-403, (R)-2-((4-fluorophenyl)amino)-2-oxo-1-phenylethyl 3-amino-6-(1-(1-(2-(1-(3-(2-(2,6-dioxopiperidin-3-yl)-1,3-dioxoisoindolin-5-yl)propanoyl)piperidin-4-yl)acetyl)piperidin-4-yl)-1H-pyrazol-4-yl)pyrazine-2-carboxylate] | 43.50 | 29.42 | – | – |
